Measurements published in PMC8808744 (ACS chemical biology, 2019).
≈ marks a conversion by molar mass, not a printed value.

Assays:
[1] = test system: wild-type P. aeruginosa PAO1; assay: Growth-curve assay in liquid medium; format: cell-based, Pseudomonas aeruginosa; conditions: CAZ at 0.28 μg mL^−1, MEM at 0.14 μg mL^−1 (sub-MIC)
P. aeruginosa PAO1 [2] = assay: MIC against parent strain PAO1; format: cell-based; conditions: Pseudomonas aeruginosa
P. aeruginosa PAO1 [3] = format: cell-based, Pseudomonas aeruginosa
SltB1 = SltB1 (Pseudomonas aeruginosa, UniProt Q9HX24); assay: biochemical; format: binding
Ec MltGsol = Ec MltGsol (Escherichia coli, UniProt P28306); assay: Dissociation constant by non-denaturing mass spectrometry, E. coli MltGsol; format: binding
MltDsol = MltDsol (Pseudomonas aeruginosa, UniProt Q9I2T2); assay: biochemical; format: binding
Slt = Slt (Pseudomonas aeruginosa, UniProt Q9HZI6); assay: biochemical; format: binding
Sequence of Slt (Q9HZI6 25-642 limits assumed): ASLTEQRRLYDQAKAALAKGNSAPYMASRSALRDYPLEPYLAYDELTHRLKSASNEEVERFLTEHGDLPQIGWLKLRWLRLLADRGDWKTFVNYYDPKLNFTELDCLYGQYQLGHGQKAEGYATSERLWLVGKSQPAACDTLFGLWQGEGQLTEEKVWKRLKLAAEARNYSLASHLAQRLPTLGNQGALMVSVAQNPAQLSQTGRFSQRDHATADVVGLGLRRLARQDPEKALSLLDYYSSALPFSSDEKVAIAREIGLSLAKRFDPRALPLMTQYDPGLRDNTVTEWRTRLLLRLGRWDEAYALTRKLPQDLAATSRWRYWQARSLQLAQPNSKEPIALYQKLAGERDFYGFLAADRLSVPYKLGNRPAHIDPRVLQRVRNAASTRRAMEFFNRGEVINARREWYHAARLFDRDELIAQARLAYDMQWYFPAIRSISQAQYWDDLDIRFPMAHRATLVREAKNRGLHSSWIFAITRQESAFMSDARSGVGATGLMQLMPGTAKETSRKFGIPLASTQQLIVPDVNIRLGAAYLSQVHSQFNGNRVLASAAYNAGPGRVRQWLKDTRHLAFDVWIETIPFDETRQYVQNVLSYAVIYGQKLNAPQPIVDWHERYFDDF

Sequence of SltB1 (Q9HX24 34-340 limits assumed): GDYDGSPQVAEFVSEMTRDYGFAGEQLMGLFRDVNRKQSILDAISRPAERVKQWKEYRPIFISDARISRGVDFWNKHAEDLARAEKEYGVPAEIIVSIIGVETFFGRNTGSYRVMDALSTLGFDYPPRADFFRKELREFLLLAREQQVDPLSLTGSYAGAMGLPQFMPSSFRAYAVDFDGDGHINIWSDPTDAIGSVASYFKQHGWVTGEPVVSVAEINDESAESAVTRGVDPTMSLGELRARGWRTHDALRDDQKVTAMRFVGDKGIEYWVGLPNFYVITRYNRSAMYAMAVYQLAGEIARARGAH
Sequence of Ec MltGsol (P28306 25-340 with tags or gaps limits assumed): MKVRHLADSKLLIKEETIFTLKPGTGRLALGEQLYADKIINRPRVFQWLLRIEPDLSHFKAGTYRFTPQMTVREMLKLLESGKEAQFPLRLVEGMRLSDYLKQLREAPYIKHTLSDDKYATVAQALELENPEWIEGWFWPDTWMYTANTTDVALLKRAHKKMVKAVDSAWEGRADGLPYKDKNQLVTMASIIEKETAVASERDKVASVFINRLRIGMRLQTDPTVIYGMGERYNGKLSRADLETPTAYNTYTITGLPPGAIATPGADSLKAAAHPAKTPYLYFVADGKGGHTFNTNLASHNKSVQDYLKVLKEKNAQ
Sequence of MltDsol (Q9I2T2 32-534 limits assumed): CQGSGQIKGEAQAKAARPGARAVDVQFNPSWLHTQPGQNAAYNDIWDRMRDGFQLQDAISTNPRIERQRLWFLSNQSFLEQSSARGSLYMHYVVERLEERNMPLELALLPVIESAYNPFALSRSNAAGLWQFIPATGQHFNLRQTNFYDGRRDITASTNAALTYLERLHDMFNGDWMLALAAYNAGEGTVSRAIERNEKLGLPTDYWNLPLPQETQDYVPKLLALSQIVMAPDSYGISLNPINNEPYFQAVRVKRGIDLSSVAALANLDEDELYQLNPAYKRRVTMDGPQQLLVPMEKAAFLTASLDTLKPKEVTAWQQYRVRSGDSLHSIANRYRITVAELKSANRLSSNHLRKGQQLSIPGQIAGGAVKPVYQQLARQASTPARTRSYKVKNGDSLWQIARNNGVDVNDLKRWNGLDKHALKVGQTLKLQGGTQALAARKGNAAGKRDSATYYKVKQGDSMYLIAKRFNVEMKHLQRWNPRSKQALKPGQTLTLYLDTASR

| Structure (SMILES) | growth of wild-type PAO1 with β-lactam alone [1] | MIC (P. aeruginosa PAO1 [2]) [µg/mL] | recovery of CAZ/bulgecin A-damaged bacteria (P. aeruginosa PAO1 [3]) | Kd (SltB1) [µM] | Kd (Ec MltGsol) [µM] | Kd (MltDsol) [µM] | Kd (Slt) [µM] |
| --- | --- | --- | --- | --- | --- | --- | --- |
| CC(C)(O/N=C(\C(=O)N[C@@H]1C(=O)N2C(C(=O)[O-])=C(C[n+]3ccccc3)CS[C@H]12)c1csc(N)n1)C(=O)O [CAZ, Ceftazidime] | normal growth | 0.5 (≈ 0.915 µM) |  |  |  |  |  |
| CC(=O)N[C@H]1[C@H](O[C@H]2C[C@@H](C(=O)NCCS(=O)(=O)O)N[C@@H]2CO)O[C@H](CO)[C@@H](OS(=O)(=O)O)[C@@H]1O [Bulgecin A] |  |  | delayed recovery | 160 ± 21 | 24 ± 5.1 | 1.4 ± 0.3 | 8.5 ± 1.1 |
| C[C@@H](O)[C@H]1C(=O)N2C(C(=O)O)=C(S[C@@H]3CN[C@H](C(=O)N(C)C)C3)[C@H](C)[C@H]12 [MEM, Meropenem] | normal growth | 0.5 (≈ 1.3 µM) |  |  |  |  |  |
